Assay results reported in PMC12775434, “Ultra-large virtual screening unveils potent agonists of the neuromodulatory orphan receptor GPR139” (Nature Communications, 2025).
Values joined by “and” are separate entries in the source; they are usually repeats but may differ in a detail not shown here. Equal entries are not always repeated. Where two headings read alike, the source gives them in different places.

What was measured:
Assay type in all cases: cell-based
GPR139 [1] = biological target: T1, GPR139 (Homo sapiens, UniProt Q6DWJ6); test: Ca2+ mobilization assay, agonist mode, stable GPR139-CHOk1 cell line; conditions: for Emax: normalized to Lundbeck Cmp 1a, read-out: Emax (%) Ca2+
T1 sequence (Q6DWJ6 1-353): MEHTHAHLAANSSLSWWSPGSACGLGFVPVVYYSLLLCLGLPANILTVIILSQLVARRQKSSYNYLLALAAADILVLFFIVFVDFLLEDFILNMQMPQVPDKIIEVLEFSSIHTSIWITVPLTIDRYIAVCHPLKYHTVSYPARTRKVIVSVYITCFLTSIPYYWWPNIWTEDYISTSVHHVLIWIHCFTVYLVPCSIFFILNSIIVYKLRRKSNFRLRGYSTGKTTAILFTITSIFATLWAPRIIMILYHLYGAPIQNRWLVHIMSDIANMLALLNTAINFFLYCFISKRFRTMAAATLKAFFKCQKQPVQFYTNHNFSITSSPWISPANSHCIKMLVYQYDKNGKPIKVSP
Outline: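 Agonist activity of compounds is assessed in stably transfected CHO-K1 cells using the calcium dye Fluo-4 at 37 °C in HEPES-buffered HBSS (pH 7.4). Efficacy is expressed relative to the reference agonist Lundbeck Cmp 1a, set as 100%.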

GPR139 [2] = biological target: T1, GPR139; test: Ca2+ mobilization assay, antagonist mode (EC80 800 nM Lundbeck Cmp 1a after 20 min preincubation), GPR139-CHOk1; conditions: individual replicates (Supplementary Figure 1)
Outline: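 Fluo-4-loaded GPR139-CHOk1 cells in HEPES-buffered HBSS (pH 7.4, 2.5 mM probenecid) given test compounds at 10 µM, then after 20 min challenged with 800 nM Lundbeck Cmp 1a (EC80). Calcium fluorescence read at 37 °C, 485/525 nm.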

[3] = biological target: T2, human muscarinic acetylcholine M1 receptor (M1R) (Homo sapiens, UniProt P11229); test: Ca2+ mobilization counter-screen in M1R-CHOk1 cells; conditions: individual replicates (Supplementary Figure 2)
T2 sequence (P11229 1-460): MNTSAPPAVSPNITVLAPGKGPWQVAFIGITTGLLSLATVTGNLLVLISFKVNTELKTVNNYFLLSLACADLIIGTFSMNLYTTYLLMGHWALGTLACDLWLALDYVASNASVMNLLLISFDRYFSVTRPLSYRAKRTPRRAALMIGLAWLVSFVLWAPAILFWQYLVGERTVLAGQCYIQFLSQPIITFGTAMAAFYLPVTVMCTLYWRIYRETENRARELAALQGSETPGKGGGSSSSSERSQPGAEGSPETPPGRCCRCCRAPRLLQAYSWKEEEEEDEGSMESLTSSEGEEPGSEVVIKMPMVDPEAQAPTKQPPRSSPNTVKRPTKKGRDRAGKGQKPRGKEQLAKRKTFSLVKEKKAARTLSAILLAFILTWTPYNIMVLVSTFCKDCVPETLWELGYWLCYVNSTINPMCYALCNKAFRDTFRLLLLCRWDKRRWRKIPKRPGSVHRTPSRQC
Outline: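 M1R-CHOk1 cells seeded at 30,000/well for 20–24 h were loaded with 2 µM Fluo-4 AM for 1 h at 37 °C in HEPES-buffered HBSS (pH 7.4, 2.5 mM probenecid). Compounds were added after baseline reads, with DMSO at most 0.3% final. Calcium mobilization was read at 37 °C, excitation 485/emission 525 nm.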

[4] = 0.1 µM, individual replicates (Supplementary Figure 3)
[5] = 1 µM, individual replicates (Supplementary Figure 3)
[6] = 10 µM, individual replicates (Supplementary Figure 3)
[7] = Agonist mode, individual replicates (Supplementary Figure 1)
[8] = Supplementary Table 2, mean ± SEM
[9] = log [Compound] M -4.5, replicate experiments
[10] = log [Compound] M -5.0, replicate experiments
[11] = log [Compound] M -5.5, replicate experiments
[12] = log [Compound] M -6.0, replicate experiments
[13] = log [Compound] M -6.5, replicate experiments
[14] = log [Compound] M -7.0, replicate experiments
[15] = log [Compound] M -7.5, replicate experiments
[16] = log [Compound] M -8.0, replicate experiments
[17] = log [Compound] M -8.5, replicate experiments
[18] = log [Compound] M -9.0, replicate experiments
[19] = primary screen, 10 µM compound, agonist mode, three columns = independent experiments

Ca2+ signal (% of Cmp 1a) (GPR139 [1]; [4]) | Ca2+ signal (% of Cmp 1a) (GPR139 [1]; [5]) | Ca2+ signal (% of Cmp 1a) (GPR139 [1]; [6]) | EC50 (GPR139 [1]; GPR139-CHOk1, read-out: EC50, Ca2+ mobilization) [µM] | Emax (GPR139 [1]; [8]) [%] | EC50 (GPR139 [1]; Supplementary Table 2, mean ± SEM, read-out: pEC50 Ca2+ (converted)) [µM] | SMILES | Ca2+ signal (% of Cmp 1a) (GPR139 [1]; [7]) | Ca2+ signal (% of Cmp 1a) (GPR139 [1]; [9]) | Ca2+ signal (% of Cmp 1a) (GPR139 [1]; [10]) | Ca2+ signal (% of Cmp 1a) (GPR139 [1]; [11]) | Ca2+ signal (% of Cmp 1a) (GPR139 [1]; [12]) | Ca2+ signal (% of Cmp 1a) (GPR139 [1]; [13]) | Ca2+ signal (% of Cmp 1a) (GPR139 [1]; [14]) | Ca2+ signal (% of Cmp 1a) (GPR139 [1]; [15]) | Ca2+ signal (% of Cmp 1a) (GPR139 [1]; [16]) | Ca2+ signal (% of Cmp 1a) (GPR139 [1]; [17]) | Ca2+ signal (% of Cmp 1a) (GPR139 [1]; [18]) | Ca2+ signal (% of Cmp 1a) (GPR139 [1]; [19]) | Ca2+ signal (% of Cmp 1a) (GPR139 [2]) | Ca2+ signal (% of Carbachol) [3]
0.9 % of Cmp 1a and -12.1 % of Cmp 1a | 17.5 % of Cmp 1a and 11.9 % of Cmp 1a | 52.6 % of Cmp 1a and 31.9 % of Cmp 1a | 3.6 | 88 ± 4 |  | CC(NC(=O)Cn1cncc(-c2ccccc2)c1=O)c1ccccc1 (centres unmarked) [Compound 5, C[C@@H](NC(=O)CN1C=NC=C(C=2C=CC=CC2)C1=O)C=3C=CC=CC3] | 71 % of Cmp 1a and 78 % of Cmp 1a and 63 % of Cmp 1a | 91 % of Cmp 1a and 74 % of Cmp 1a and 86 % of Cmp 1a | 75 % of Cmp 1a and 51 % of Cmp 1a and 76 % of Cmp 1a | 60 % of Cmp 1a and 41 % of Cmp 1a and 50 % of Cmp 1a | 23 % of Cmp 1a (2×) and 24 % of Cmp 1a | 16 % of Cmp 1a (2×) and 0.619 % of Cmp 1a | 11 % of Cmp 1a | 9 % of Cmp 1a and 2.21 % of Cmp 1a and 7 % of Cmp 1a | 3.64 % of Cmp 1a and 0.518 % of Cmp 1a and 5.27 % of Cmp 1a | 13 % of Cmp 1a and 0.00547 % of Cmp 1a and 8 % of Cmp 1a | 7 % of Cmp 1a and -1.29 % of Cmp 1a and 10 % of Cmp 1a | 71 % of Cmp 1a and 78 % of Cmp 1a and 63 % of Cmp 1a | 38.6236 % of Cmp 1a and 37.7276 % of Cmp 1a and 30.4652 % of Cmp 1a | -15 % of Carbachol and -5 % of Carbachol
5.3 % of Cmp 1a and 10.2 % of Cmp 1a | 18.7 % of Cmp 1a and 1.8 % of Cmp 1a | 46.3 % of Cmp 1a |  | 70 ± 3 | 2.51 | Cc1noc(C(C)NC(=O)Nc2cccc(-c3ccccc3)c2)n1 (centres unmarked) [Compound 3, CC(NC(=O)NC=1C=CC=C(C1)C=2C=CC=CC2)C3=NC(C)=NO3] | 55 % of Cmp 1a and 56 % of Cmp 1a and 62 % of Cmp 1a | 57 % of Cmp 1a and 72 % of Cmp 1a and 70 % of Cmp 1a | 55 % of Cmp 1a and 59 % of Cmp 1a and 65 % of Cmp 1a | 25 % of Cmp 1a and 54 % of Cmp 1a and 37 % of Cmp 1a | 11 % of Cmp 1a and 34 % of Cmp 1a and 21 % of Cmp 1a | -1.52 % of Cmp 1a and 4.42 % of Cmp 1a and 16 % of Cmp 1a | -7 % of Cmp 1a and -0.413 % of Cmp 1a and 6 % of Cmp 1a | -4.33 % of Cmp 1a and 4 % of Cmp 1a and 8 % of Cmp 1a | -1.83 % of Cmp 1a and -3.24 % of Cmp 1a and 5 % of Cmp 1a | -10 % of Cmp 1a and -2 % of Cmp 1a and 4.52 % of Cmp 1a | 0.621 % of Cmp 1a and -0.857 % of Cmp 1a and 2.53 % of Cmp 1a | 55 % of Cmp 1a and 56 % of Cmp 1a and 62 % of Cmp 1a | 29.8327 % of Cmp 1a and 24.7661 % of Cmp 1a and 29.9717 % of Cmp 1a | -13 % of Carbachol and -10 % of Carbachol
